ChEMBL document CHEMBL4396913, “Synthesis and biological evaluation of hybrid quinolone-based quaternary ammonium antibacterial agents” (Eur J Med Chem, 2019)
Calls of active or inactive are those of the source. The rule behind the calls is not given here.

What was measured:
Pseudomonas aeruginosa = test: Biofilm degradation activity against Pseudomonas aeruginosa ATCC 9027 assessed as biofilm formation at 4 times antibacterial MIC incubated for 24 hrs compound added post-biofilm formation by total biomass crystal violet staining-based method; format: functional
Staphylococcus aureus [1] = test: Antibacterial activity against methicillin resistant Staphylococcus aureus 6347 cultured in MH medium assessed as reduction in bacterial growth incubated for 48 hrs by microbroth dilution method; format: functional; conditions: Staphylococcus aureus, 6347, 48 h
Enterococcus hirae [2] = test: Antibacterial activity against Enterococcus hirae ATCC 1052 cultured in BHI medium assessed as reduction in bacterial growth incubated for 48 hrs by microbroth dilution method; format: functional; conditions: ATCC 1052, 48 h
Staphylococcus aureus [3] = test: Biofilm degradation activity against Staphylococcus aureus ATCC 6538 assessed as biofilm formation at 4 times antibacterial MIC incubated for 24 hrs compound added post-biofilm formation by total biomass crystal violet staining-based method; format: functional
Bacillus spizizenii = test: Bactericidal activity against Bacillus subtilis ATCC 6633 cultured in MH medium assessed as reduction in bacterial survival incubated for 48 hrs by microbroth dilution method; format: functional; conditions: ATCC 6633, 48 h
[4] = test system: Staphylococcus epidermidis; test: Resistance index, ratio of MIC for methicillin resistant Staphylococcus epidermidis ATCC 13199 measured after 4 dilution steps to MIC for Staphylococcus epidermidis ATCC 13199 measured after 48 hrs incubation by microbroth dilution method; format: functional
Proteus vulgaris = test: Antibacterial activity against Proteus vulgaris NCTC 4635 cultured in MH medium assessed as reduction in bacterial growth incubated for 48 hrs by microbroth dilution method; format: functional; conditions: NCTC 4635, 48 h
[5] = test system: Staphylococcus epidermidis; test: Antibacterial activity against methicillin resistant Staphylococcus epidermidis ATCC 13199 cultured in MH medium assessed as reduction in bacterial growth incubated for 48 hrs by microbroth dilution method; format: functional; conditions: ATCC 13199, 48 h
Staphylococcus aureus [6] = test: Antibiofilm activity against Staphylococcus aureus ATCC 25923 assessed as biofilm biomass at <0.625 uM incubated for 24 hrs compound added prior to bacterial biofilm formation by crystal violet staining based assay; format: functional, organism-based
[7] = test system: Staphylococcus epidermidis; test: Resistance index, ratio of MIC for methicillin resistant Staphylococcus epidermidis ATCC 13199 measured after 2 dilution steps to MIC for Staphylococcus epidermidis ATCC 13199 measured after 48 hrs incubation by microbroth dilution method; format: functional
Enterococcus hirae [8] = test: Bactericidal activity against Enterococcus hirae ATCC 1052 cultured in BHI medium assessed as reduction in bacterial survival incubated for 48 hrs by microbroth dilution method; format: functional; conditions: ATCC 1052, 48 h
Escherichia coli [9] = test: (§1) Induction of inner membrane permeabilization in Escherichia coli ATCC 8739 assessed as increase in release of cytoplasmic beta galactosidase using ONPG as substrate at 128 ug/ml incubated for 90 mins compound added with bacterial cells after lag time of about 10 mins by spectrophotometry; format: organism-based
[10] = Drug uptake in Escherichia coli ATCC 8739 assessed as cellular accumulation treated with 100 uM CCCP for 10 mins prior to compound challenge for 0.5 hrs by laser confocal microscopy; format: ADME
Escherichia coli [11] = test: as §1, with “above bactericidal concentration” for “128 ug/ml”; format: organism-based
[12] = Drug uptake in Escherichia coli ATCC 8739 assessed as membrane accumulation and affinity to cell structure at 128 ug/ml incubated for 30 mins by laser confocal microscopy; format: ADME; conditions: 0.5 h
Escherichia coli [13] = test: Antibacterial activity against Escherichia coli ATCC 8739 assessed as bacterial cell swelling followed by non-divisional long cord formation and cell aggregates formation at 128 ug/ml incubated for 30 mins by laser confocal microscopy; format: functional, organism-based
Staphylococcus aureus [14] = test: Antibiofilm activity against Staphylococcus aureus ATCC 25923 pre-formed mature biofilm assessed as reduction in biofilm viability at 40 uM incubated for 24 hrs compound added post-biofilm formation by resazurin staining based assay relative to control; format: functional; conditions: ATCC 25923, 24 h
DNA gyrase = DNA gyrase (Escherichia coli, UniProt P0AES4+P0AES6); test: Inhibition of Escherichia coli DNA gyrase super-coiling activity using relaxed pNO1 DNA as substrate incubated for 30 mins by fluorescence assay; format: protein-complex assay
Staphylococcus aureus [15] = test: Antibiofilm activity against Staphylococcus aureus ATCC 25923 pre-formed mature biofilm assessed as reduction in biofilm biomass at 40 uM incubated for 24 hrs compound added post biofilm formation by crystal violet staining based assay relative to control; format: functional; conditions: ATCC 25923, 24 h
Escherichia coli [16] = test: Antibacterial activity against Escherichia coli ATCC 8739 assessed as reduction in cell number with morphological disorders at 128 ug/ml incubated for 30 mins by laser confocal microscopy; format: functional, organism-based

SMILES	Activity (Pseudomonas aeruginosa)	MIC (Staphylococcus aureus [1])	MIC (Enterococcus hirae [2])	Activity (Staphylococcus aureus [3])	MBC (Bacillus spizizenii)	Ratio [4]	MIC (Proteus vulgaris)	MIC [5]	inhibition (Staphylococcus aureus [6])	Ratio [7]	MBC (Enterococcus hirae [8])	Activity (Escherichia coli [9])	Drug uptake [10]	Activity (Escherichia coli [11])	Drug uptake [12]	Activity (Escherichia coli [13])	inhibition at 40 µM (Staphylococcus aureus [14])	IC50 (DNA gyrase)	inhibition at 40 µM (Staphylococcus aureus [15])	Activity (Escherichia coli [16])
CCn1cc(C(=O)O)c(=O)c2cc(F)c(N3CC[N+]4(CC3)CN3C(=N4)C(C(=O)O)=Cc4ccccc43)nc21.[Cl-]	42%	4 mg/L	512 mg/L	16%	2 mg/L	16	0.25 mg/L	2 mg/L	inactive	4	512 mg/L	–	–	–	–	–	–	–	–	–
O=C(O)C1=Cc2ccccc2N2C[N+]3(CCN(c4cc5c(cc4F)c(=O)c(C(=O)O)cn5C4CC4)CC3)N=C12.[Cl-]	30%	2 mg/L	> 512 mg/L	10%	2 mg/L	–	0.063 mg/L	1 mg/L	–	–	–	Active	Dose-dependent effect	Active	Not Active	Active	100%	6.02 µM	50%	Active
CCn1cc(C(=O)O)c(=O)c2cc(F)c(N3CC[N+]4(CN5C(=N4)C(C(=O)O)=Cc4ccccc45)C(C)C3)c(F)c21.[Cl-] (configuration not stated)	47%	4 mg/L	512 mg/L	6%	0.5 mg/L	–	0.125 mg/L	1 mg/L	inactive	–	512 mg/L	–	–	–	–	–	–	2.44 µM	–	–
